Laboratory results reported in patent publication US20060094664A1, “Deoxycholic acid derivatives for the treatment of acute dysfunctions of portal and hepatic venous circulation” (priority 2002, published 2006).
Marks after values point to notes of the source that are not given here.

Assays:
[1] = system: rat liver perfused with norepinephrine solution; assay: Perfused rat liver: intrahepatic constriction induced by norepinephrine, infusion of tested compound; format: in vivo; conditions: for Portal pressure % increase after NE infusion: liver perfused with norepinephrine 1 μM, then single infusion of 1 mM solution of tested compound
Experimental: At the end of the treatment (fourth week) the animals were anaesthetized with urethane and then systemic pressure (MAP) and portal pressure (PP) were monitored by catheterisation both of the carotid and portal vein. The animal liver was then continuously perfused with Krebs solution (40 ml/min) balanced with O2/CO2 (95%-5%) using a peristaltic pump (Gilson) In this way the pharmacological effect of both tested compounds has been evaluated. The rat liver was then firstly perfused with norepinephrine solution (1 μM) in order to induce an intrahepatic circulation constriction. Afterwards, in groups 2 and 3 a single infusion with a 1 mM solution of each of the tested compounds was carried out and portal pressure variations have been monitored.

[2] = system: Wistar rats subjected to ligature of bile duct; assay: Hepatic fibrosis evaluated by an immunocytochemical method in bile duct ligated rats; format: in vivo, rat; conditions: a week treatment in bile duct ligated rats
From the text: (§1) Twenty one Wistar rats were divided in three groups of 7 animals each and then subjected to ligature of bile duct. Within three weeks following the ligature, the animals were left on rest. As a consequence of the bile duct ligature, the animals developed dysfunctions of the hepatic and portal venous circulation. At the end of the third week, each group underwent the following weekly treatment protocol: • Group 1: control group treated with carrier (1% w/v water suspension of carboxymethylcellulose); • Group 2: treated with NO-urso at a dose of 28 mg/kg (0.04 mmol/kg), twice a day; • Group 3: treated with ursodeoxycholic acid (urso in table) at a dose of 15 mg/kg (0,04 mmol/kg), twice a day.

[3] = system: Wistar rats subjected to ligature of bile duct; assay: Portal and systemic pressure after a week treatment in rats with bile duct ligature; format: in vivo, rat; conditions: for Portal pressure After a week treatment: bile duct ligated Wistar rats, 0.04 mmol/kg twice a day intragastric for one week
From the text: as §1, with “day. The rested compounds have been administered by intragastric cannula in 1% water suspension of carboxymethylcellulose. At the end of the treatment (fourth week) the animals were anaesthetized with urethane and then systemic pressure (MAP) and portal pressure (PP) were monitored by catheterisation both of the carotid and portal vein. The animal liver was then continuously perfused with Krebs solution (40 ml/min) balanced with O2/CO2 (95%-5%) using a peristaltic pump (Gilson) In this way the pharmacological effect of both tested compounds has been evaluated.” for “day.”

Compound	increase of intrahepatic resistance induced by norepinephrine ([1]; 500% increase determined by NE infusion, NO-urso p<0.001)	Portal pressure % increase after NE infusion [1] [%]	influence on hepatic fibrosis [2]	influence on hepatic fibrosis ([2]; listed as No-urso)	portal pressure reduction ([3]; after the week treatment, perfusion rate 40 ml/min, with respect to controls) [mmHg]	Portal pressure After a week treatment ([3]; perfusion rate 40 ml/min)	influence on systemic hemodynamic parameters (systemic pressure, cardiac frequency) ([3]; rat, in vivo)	influence on systemic hemodynamic parameters (systemic pressure, cardiac frequency) ([3]; a week treatment in bile duct ligated rats)	portal pressure increase with respect to controls ([3]; after the week treatment, perfusion rate 40 ml/min) [mmHg]	Systemic hemodynamic parameters: Systemic pressure (MAP) ([3]; bile duct ligated rats after a week treatment, 0.04 mmol/kg twice a day, carotid catheterisation, in mmHg (unit assumed))	Systemic hemodynamic parameters: Cardiac frequency ([3]; bile duct ligated rats after a week treatment, 0.04 mmol/kg twice a day, in beats/min (unit assumed))
COc1cc(/C=C/C(=O)OCCCCO[N+](=O)[O-])ccc1OC(=O)CC[C@@H](C)[C@H]1CC[C@H]2[C@@H]3[C@@H](O)C[C@@H]4C[C@H](O)CC[C@]4(C)[C@H]3CC[C@]12C [NO-urso, (3α,5β,7β)-3,7-dihydroxycholan-24-oic Acid 2-methoxy-4[3-[4-(nitrooxy)butoxy]-3-oxo-1-propenyl]phenyl Ester]	significantly reduced	180	does not modify	do not influence	3	14* mmHg	do not influence				
C[C@H](CCC(=O)O)[C@H]1CC[C@H]2[C@@H]3[C@@H](O)C[C@@H]4C[C@H](O)CC[C@]4(C)[C@H]3CC[C@]12C [Urso, ursodeoxycholic acid]		400				19 mmHg		do not influence	2	95 ± 12	372 ± 41
